The record followed here is patent US8039616B2, “Benzodiazepine derivatives for treating hepatitis C infection” (AstraZeneca AB, priority 2005, dated 2011).

T1 sequence (P27958 2421-3011): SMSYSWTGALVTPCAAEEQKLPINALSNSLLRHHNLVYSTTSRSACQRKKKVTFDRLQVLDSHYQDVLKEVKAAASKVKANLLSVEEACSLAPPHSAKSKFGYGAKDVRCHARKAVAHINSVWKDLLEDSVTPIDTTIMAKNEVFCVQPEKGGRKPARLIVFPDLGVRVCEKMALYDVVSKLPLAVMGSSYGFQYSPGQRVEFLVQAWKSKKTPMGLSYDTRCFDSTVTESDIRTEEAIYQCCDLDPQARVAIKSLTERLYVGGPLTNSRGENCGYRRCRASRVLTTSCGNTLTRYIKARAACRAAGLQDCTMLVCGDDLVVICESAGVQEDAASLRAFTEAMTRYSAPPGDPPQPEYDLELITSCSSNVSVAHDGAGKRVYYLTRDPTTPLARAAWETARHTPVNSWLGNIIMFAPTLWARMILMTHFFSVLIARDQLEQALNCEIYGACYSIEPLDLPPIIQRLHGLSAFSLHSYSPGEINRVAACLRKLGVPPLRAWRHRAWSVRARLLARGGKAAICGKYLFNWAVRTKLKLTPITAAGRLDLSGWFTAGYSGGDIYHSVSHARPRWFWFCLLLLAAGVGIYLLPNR

This assay has as its target T1, HCV Polymerase (Hepatitis C virus genotype 1a, UniProt P27958).
T1 construct: the HCV Polymerase was expressed and purified by Prof Alistair Hawkins; made in house
The assay is described as follows: Polymerase 96 well microtitre plate based IC50 assay (33P-UTP incorporation, streptavidin FlashPlates). To be noted: polyA/biotinylated-U13 template-primer, 100 minutes at 25° C. It counts as biochemical. The source says:
Polymerase 96 Well Microtitre Plate Based IC50 Assay
Inhibitors of HCV Polymerase can be detected radioactively by monitoring the incorporation of ^33P-UTP within an RNA template/Bi-primer system using streptavidin coated FlashPlates. The template and primer for the reaction can be bought externally from Amersham (Poly A) and MWG-Dharmacon (Biotinylated-U13). The cold UTP can be purchased from Roche and the HCV Polymerase was expressed and purified by Prof Alistair Hawkins at Newcastle University, UK.
50 μl substrate, 40 μl enzyme, 10 μl compound=100 μl assay
Compounds are diluted so that DMSO remains 10% at all times. E.g. 5 μl compound (10 mM)+5 μl DMSO+90 μl Buffer (see below for buffer)
Some 20 mM Tris-HCl, pH 7.5, 5 mM MgCl2, 25 mM KCL, 3 mM DTT and 0.05% BSA is made up.
The PolyA and Biotinylated U13 are annealed at 70° C. for 5 minutes to 40 μM U13 (212 μg/ml polyA.) and cooled gently on ice prior to use (110 μl primer (80 μM)+5.5 μl poly A+104.5 μl dH20.). Some 200 μl annealed primer/template is mixed with 12.8 μl UTP (1 mM stock), 25.6 μl 33p-UTP and 31761.6 μl Buffer to make the substrate mix.
From IC50 dilution plates 10 μl are transferred from column 3 into columns 3 and 3 on two separate assay plates. This is repeated for all compound dilutions to 2 separate assay plates. Then 10 μl 10% DMSO solution is added to positive and negative controls (see plate map below). In addition, 40 μl 20 mM Tris-HCl buffer is added to negative controls.
Then 50 μl substrate mix is added to all wells.
Then 40 μl enzyme mix each is added to all other wells and the reaction is left for 100 minutes shaking at 25° C.
The reaction is terminated with the addition of 100 μl, 100 mM EDTA and the volume is transferred to a streptavidin coated flash plate, covered and left for an hour.
All plates are washed three times in SkanWasher plate-washer (Skatron Instruments) under programme ‘AH’. The wash buffer contains, 0.01M phosphate buffer, 0.0027M potassium chloride and 0.137M sodium chloride, pH 7.4 at 25° C., 0.05% Tween
All plate are recovered and the cpmB read in the TopCount (supplied by DPM solutions), protocol 6.
`CCOc1ccccc1C(=O)NC1N=C(c2ccc(Cl)cc2)c2ccccc2NC1=O` (stereo not drawn) [Example 1, N-[5-(4-Chloro-phenyl)-2-oxo-2,3-dihydro-1H-benzo[e][1,4]diazepin-3-yl]-2-ethoxy-benzamide] yielded an IC50 of over 1000 nM. The compound `CCOc1ccccc1C(=O)N[C@H]1N=C(c2ccc(Cl)cc2)c2ccccc2NC1=O` [Example 2, (S)—N-[5-(4-Chloro-phenyl)-2-oxo-2,3-dihydro-1H-benzo[e][1,4]diazepin-3-yl]-2-ethoxy-benzamide] yielded an IC50 of over 1000 nM. In turn, `COc1ccc(OC)c(C(=O)NC2N=C(c3ccc(Cl)cc3)c3ccccc3NC2=O)c1` (stereo not drawn) [Example 3, N-[5-(4-Chloro-phenyl)-2-oxo-2,3-dihydro-1H-benzo[e][1,4]diazepin-3-yl]-2,5-dimethoxy-benzamide] yielded an IC50 of under 1000 nM. In turn, `COc1ccc(OC)c(C(=O)N[C@H]2N=C(c3ccc(Cl)cc3)c3ccccc3NC2=O)c1` [Example 4, (S)—N-[5-(4-Chloro-phenyl)-2-oxo-2,3-dihydro-1H-benzo[e][1,4]diazepin-3-yl]-2,5-dimethoxy-benzamide] registered an IC50 of under 1000 nM.

`COc1ccc(OC)c(C(=O)N[C@@H]2N=C(c3ccc(Cl)cc3)c3ccccc3NC2=O)c1` [Example 5, (R)—N-[5-(4-Chloro-phenyl)-2-oxo-2,3-dihydro-1H-benzo[e][1,4]diazepin-3-yl]-2,5-dimethoxy-benzamide]: the concentration for half-maximal inhibition (IC50) was over 1000 nM. The result for `COc1ccc(F)cc1C(=O)NC1N=C(c2ccc(Cl)cc2)c2ccccc2NC1=O` (stereo not drawn) [Example 6, N-[5-(4-Chloro-phenyl)-2-oxo-2,3-dihydro-1H-benzo[e][1,4]diazepin-3-yl]-5-fluoro-2-methoxy-benzamide] reads over 1000 nM; that for `COc1ccc(F)cc1C(=O)N[C@H]1N=C(c2ccc(Cl)cc2)c2ccccc2NC1=O` [Example 7, (S)—N-[5-(4-Chloro-phenyl)-2-oxo-2,3-dihydro-1H-benzo[e][1,4]diazepin-3-yl]-5-fluoro-2-methoxy-benzamide], over 1000 nM; that for `COc1ccc(F)cc1C(=O)N[C@@H]1N=C(c2ccc(Cl)cc2)c2ccccc2NC1=O` [Example 8, (R)—N-[5-(4-Chloro-phenyl)-2-oxo-2,3-dihydro-1H-benzo[e][1,4]diazepin-3-yl]-5-fluoro-2-methoxy-benzamide], over 1000 nM. For `COc1ccc(Cl)cc1C(=O)NC1N=C(c2ccc(Cl)cc2)c2ccccc2NC1=O` (stereo not drawn) [Example 9, 5-Chloro-N-[5-(4-chloro-phenyl)-2-oxo-2,3-dihydro-1H-benzo[e][1,4]diazepin-3-yl]-2-methoxy-benzamide] the value was under 1000 nM; for `COc1ccc(Cl)cc1C(=O)N[C@H]1N=C(c2ccc(Cl)cc2)c2ccccc2NC1=O` [Example 10, (S)-5-Chloro-N-[5-(4-chloro-phenyl)-2-oxo-2,3-dihydro-1H-benzo[e][1,4]diazepin-3-yl]-2-methoxy-benzamide], under 1000 nM; for `COc1ccc(Cl)cc1C(=O)N[C@@H]1N=C(c2ccc(Cl)cc2)c2ccccc2NC1=O` [Example 11, (R)-5-Chloro-N-[5-(4-chloro-phenyl)-2-oxo-2,3-dihydro-1H-benzo[e][1,4]diazepin-3-yl]-2-methoxy-benzamide], over 1000 nM.

Compound `O=C(NC1N=C(c2ccc(Cl)cc2)c2ccccc2NC1=O)c1sccc1Br` (stereo not drawn) [Example 12, 3-Bromo-thiophene-2-carboxylic acid [5-(4-chloro-phenyl)-2-oxo-2,3-dihydro-1H-benzo[e][1,4]diazepin-3-yl]-amide] gave a 50% inhibitory concentration (IC50) of over 1000 nM.

The IC50 is the midpoint of a concentration-inhibition curve. High values mean lower potency, low ones higher potency.
